Experiment: Piroctone olamine as a phenoxyethanol solution
Type: physicochemical
Conditions: if heated, for example to 80° C.
Experimental: In some embodiments, piroctone olamine is dissolved in a suitable amount of phenoxyethanol; i.e., all or part of the phenoxyethanol of the composition can be employed as the solvent for the piroctone olamine. Typically, where phenoxyethanol is the solvent for the piroctone olamine pre-mix or pre-solution, the piroctone olamine is present in the pre-mixture or pre-solution in an amount of from 1-30% by weight; for example 5%, 10%, 15%, 20%, 25% or 30% by weight. In such embodiments, the mixture including the piroctone olamine and phenoxyethanol is preferably heated to a temperature of from 50-120° C.; for example from 60-100° C.; for example from 65-80° C.; preferably to effect partial or complete dissolution of the piroctone olamine.
The data above show the feasibility of adding piroctone olamine as a phenoxyethanol solution up to at least 30% w/w during bar soap manufacturing, if heated, for example to 80° C. Furthermore, some piroctone olamine can optionally be supplemented as a solution in a further solvent, such as a fragrance or a fragrance dissolved in a solvent, preferably up to 7.5% at room temperature.

- piroctone olamine as a phenoxyethanol solution, feasible concentration: at least 30 % w/w
Structure (SMILES): Cc1cc(CC(C)CC(C)(C)C)n(O)c(=O)c1.NCCO (stereo not shown) [piroctone olamine]

From patent US10821059B2, “Cleansing bars” (priority 2015, dated 2020)
